Settings: Liquid

CCCCCCC [heptane]
viscosity [mPa·s]
Settings | 293.15 K | 298.15 K | 313.15 K | 333.15 K | 353.15 K | 363.15 K
100 kPa, Vibrating wire viscometry | 0.4151 | 0.3914 | 0.3379 | 0.2821 | 0.2406 | 0.2224
1000 kPa, Vibrating wire viscometry | 0.4202 | 0.3962 | 0.3412 | 0.2844 | 0.2435 | 0.2254
5000 kPa, Falling or rolling sphere viscometry | 0.4359 | – | 0.3564 | – | – | –
5000 kPa, Vibrating wire viscometry | 0.4354 | 0.4142 | 0.354 | 0.2965 | 0.2549 | 0.2374
10000 kPa, Falling or rolling sphere viscometry | 0.4603 | – | 0.3756 | – | – | –
10000 kPa, Vibrating wire viscometry | 0.4579 | 0.4329 | 0.3735 | 0.3121 | 0.2672 | 0.2493
20000 kPa, Falling or rolling sphere viscometry | 0.5074 | – | 0.4131 | – | – | –
20000 kPa, Vibrating wire viscometry | 0.5013 | 0.4756 | 0.4074 | 0.3415 | 0.2957 | 0.2757
30000 kPa, Falling or rolling sphere viscometry | 0.5517 | – | 0.4518 | – | – | –
30000 kPa, Vibrating wire viscometry | 0.5459 | 0.5175 | 0.4462 | 0.3746 | 0.3216 | 0.2996
40000 kPa, Falling or rolling sphere viscometry | 0.5949 | – | 0.4899 | – | – | –
40000 kPa, Vibrating wire viscometry | 0.595 | 0.5613 | 0.4806 | 0.4061 | 0.3493 | 0.3252
50000 kPa, Vibrating wire viscometry | 0.6406 | 0.6081 | 0.5208 | 0.4355 | 0.373 | 0.3504
60000 kPa, Falling or rolling sphere viscometry | 0.6912 | – | 0.5683 | – | – | –
60000 kPa, Vibrating wire viscometry | 0.6927 | 0.6535 | 0.5563 | 0.4681 | 0.4019 | 0.3754
70000 kPa, Vibrating wire viscometry | 0.7446 | 0.7026 | 0.5992 | 0.5022 | 0.4304 | 0.3978
80000 kPa, Falling or rolling sphere viscometry | 0.7864 | – | 0.6498 | – | – | –
80000 kPa, Vibrating wire viscometry | 0.7965 | 0.7519 | 0.64 | 0.5337 | 0.457 | 0.4243
100000 kPa, Falling or rolling sphere viscometry | 0.9027 | – | 0.7309 | – | – | –
100000 kPa, Vibrating wire viscometry | 0.9106 | 0.8572 | 0.7259 | 0.603 | 0.5119 | 0.4782
120000 kPa, Falling or rolling sphere viscometry | 1.031 | – | 0.8186 | – | – | –
120000 kPa, Vibrating wire viscometry | 1.028 | 0.972 | 0.8176 | 0.6736 | 0.5735 | 0.5314
140000 kPa, Vibrating wire viscometry | 1.16 | 1.089 | 0.9137 | 0.7509 | 0.6335 | 0.5865

Cc1ccccc1 [toluene]
viscosity [mPa·s], Vibrating wire viscometry
Settings | 293.15 K | 298.15 K | 313.15 K | 323.15 K | 333.15 K | 348.15 K | 353.15 K | 373.15 K
100 kPa | 0.5907 | 0.5555 | 0.469 | 0.4214 | 0.3804 | 0.3302 | 0.3163 | 0.2667
1000 kPa | 0.5928 | 0.5603 | 0.4746 | 0.4238 | 0.3856 | 0.3361 | 0.3177 | 0.2671
5000 kPa | 0.6152 | 0.5772 | 0.4885 | 0.4385 | 0.3986 | 0.3457 | 0.3319 | 0.2782
10000 kPa | 0.6387 | 0.6006 | 0.5046 | 0.4551 | 0.4153 | 0.3588 | 0.3449 | 0.2893
20000 kPa | 0.6881 | 0.6478 | 0.5496 | 0.4877 | 0.4495 | 0.3876 | 0.3701 | 0.315
30000 kPa | 0.7354 | 0.692 | 0.5914 | 0.5293 | 0.4794 | 0.418 | 0.4006 | 0.3401
40000 kPa | 0.7913 | 0.7442 | 0.6239 | 0.565 | 0.5135 | 0.4485 | 0.4291 | 0.3643
50000 kPa | 0.8532 | 0.7983 | 0.6704 | 0.6021 | 0.5485 | 0.4795 | 0.462 | 0.3876
60000 kPa | 0.908 | 0.8463 | 0.7133 | 0.6377 | 0.5835 | 0.5089 | 0.4919 | 0.4138
70000 kPa | 0.9632 | 0.9027 | 0.7572 | 0.6789 | 0.6187 | 0.5441 | 0.5176 | 0.4372
80000 kPa | 1.022 | 0.9625 | 0.8098 | 0.7322 | 0.6579 | 0.5721 | 0.5478 | 0.4649
100000 kPa | 1.149 | 1.081 | 0.9082 | 0.809 | 0.7353 | 0.6407 | 0.6113 | 0.5193
120000 kPa | 1.287 | 1.211 | 1.009 | 0.9034 | 0.8176 | 0.7088 | 0.6825 | –
140000 kPa | 1.456 | 1.349 | 1.128 | 1.004 | 0.9111 | 0.7836 | 0.755 | –
